Measured values as given in publication PMC9851200, “Multiparameter phenotypic screening for endogenous TFEB and TFE3 translocation identifies novel chemical series modulating lysosome function” (Autophagy, 2022).

Tests used:
Format in all cases: binding
[1] = molecular target: T1, kinases (KINOMEscan panel) (Homo sapiens, UniProt P43403); conditions: NEW KINOMEscan
T1 sequence (P43403 1-619): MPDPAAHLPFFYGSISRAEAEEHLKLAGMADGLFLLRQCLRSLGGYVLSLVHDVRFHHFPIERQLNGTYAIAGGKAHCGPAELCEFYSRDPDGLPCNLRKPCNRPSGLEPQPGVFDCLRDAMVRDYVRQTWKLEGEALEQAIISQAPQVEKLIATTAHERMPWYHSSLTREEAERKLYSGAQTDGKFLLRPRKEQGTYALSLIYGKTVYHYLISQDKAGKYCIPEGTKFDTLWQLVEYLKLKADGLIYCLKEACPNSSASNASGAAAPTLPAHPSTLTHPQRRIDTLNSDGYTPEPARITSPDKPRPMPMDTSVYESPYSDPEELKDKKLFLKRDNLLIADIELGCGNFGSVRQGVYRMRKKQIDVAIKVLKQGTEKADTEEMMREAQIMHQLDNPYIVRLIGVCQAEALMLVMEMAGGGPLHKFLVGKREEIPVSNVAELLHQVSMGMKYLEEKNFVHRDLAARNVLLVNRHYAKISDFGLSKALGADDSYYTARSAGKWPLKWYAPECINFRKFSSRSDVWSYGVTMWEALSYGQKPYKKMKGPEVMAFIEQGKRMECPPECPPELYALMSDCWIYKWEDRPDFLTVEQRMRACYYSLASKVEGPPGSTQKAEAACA

[2] = molecular target: kinases (KINOMEscan panel) (Homo sapiens, UniProt Q9H4A3); conditions: NEW KINOMEscan
[3] = molecular target: kinases (KINOMEscan panel) (Homo sapiens, UniProt P11309); conditions: NEW KINOMEscan
kinases (KINOMEscan panel) (Homo sapiens, UniProt P11309), sequence (P11309 whole entry): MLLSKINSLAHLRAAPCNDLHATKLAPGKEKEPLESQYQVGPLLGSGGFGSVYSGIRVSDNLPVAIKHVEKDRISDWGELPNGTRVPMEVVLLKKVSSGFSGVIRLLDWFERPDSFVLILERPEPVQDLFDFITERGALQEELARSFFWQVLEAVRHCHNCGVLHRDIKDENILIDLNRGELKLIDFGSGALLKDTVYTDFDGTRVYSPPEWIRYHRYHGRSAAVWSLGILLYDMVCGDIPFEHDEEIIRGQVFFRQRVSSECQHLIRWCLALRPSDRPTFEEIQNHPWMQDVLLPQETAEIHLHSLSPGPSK

[4] = molecular target: kinases (KINOMEscan panel) (Homo sapiens, UniProt P27037); conditions: ACVR2A; NEW KINOMEscan
kinases (KINOMEscan panel) (Homo sapiens, UniProt P27037), sequence (P27037 20-513): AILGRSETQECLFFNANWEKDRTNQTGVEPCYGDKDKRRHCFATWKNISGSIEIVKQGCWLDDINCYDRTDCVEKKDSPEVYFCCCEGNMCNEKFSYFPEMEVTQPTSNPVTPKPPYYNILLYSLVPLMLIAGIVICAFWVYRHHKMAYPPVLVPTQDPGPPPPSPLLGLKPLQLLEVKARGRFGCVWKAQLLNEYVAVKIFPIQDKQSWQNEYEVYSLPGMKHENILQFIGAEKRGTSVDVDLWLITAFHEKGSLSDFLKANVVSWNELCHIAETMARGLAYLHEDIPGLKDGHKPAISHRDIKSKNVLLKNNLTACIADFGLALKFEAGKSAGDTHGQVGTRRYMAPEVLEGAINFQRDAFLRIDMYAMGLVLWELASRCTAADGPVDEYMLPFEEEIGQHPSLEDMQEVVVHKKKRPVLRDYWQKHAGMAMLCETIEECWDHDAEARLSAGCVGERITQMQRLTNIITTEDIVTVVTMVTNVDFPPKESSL

[5] = molecular target: kinases (KINOMEscan panel) (Homo sapiens, UniProt P42336); conditions: kinase PIK3CA; NEW KINOMEscan
kinases (KINOMEscan panel) (Homo sapiens, UniProt P42336), sequence (P42336 whole entry): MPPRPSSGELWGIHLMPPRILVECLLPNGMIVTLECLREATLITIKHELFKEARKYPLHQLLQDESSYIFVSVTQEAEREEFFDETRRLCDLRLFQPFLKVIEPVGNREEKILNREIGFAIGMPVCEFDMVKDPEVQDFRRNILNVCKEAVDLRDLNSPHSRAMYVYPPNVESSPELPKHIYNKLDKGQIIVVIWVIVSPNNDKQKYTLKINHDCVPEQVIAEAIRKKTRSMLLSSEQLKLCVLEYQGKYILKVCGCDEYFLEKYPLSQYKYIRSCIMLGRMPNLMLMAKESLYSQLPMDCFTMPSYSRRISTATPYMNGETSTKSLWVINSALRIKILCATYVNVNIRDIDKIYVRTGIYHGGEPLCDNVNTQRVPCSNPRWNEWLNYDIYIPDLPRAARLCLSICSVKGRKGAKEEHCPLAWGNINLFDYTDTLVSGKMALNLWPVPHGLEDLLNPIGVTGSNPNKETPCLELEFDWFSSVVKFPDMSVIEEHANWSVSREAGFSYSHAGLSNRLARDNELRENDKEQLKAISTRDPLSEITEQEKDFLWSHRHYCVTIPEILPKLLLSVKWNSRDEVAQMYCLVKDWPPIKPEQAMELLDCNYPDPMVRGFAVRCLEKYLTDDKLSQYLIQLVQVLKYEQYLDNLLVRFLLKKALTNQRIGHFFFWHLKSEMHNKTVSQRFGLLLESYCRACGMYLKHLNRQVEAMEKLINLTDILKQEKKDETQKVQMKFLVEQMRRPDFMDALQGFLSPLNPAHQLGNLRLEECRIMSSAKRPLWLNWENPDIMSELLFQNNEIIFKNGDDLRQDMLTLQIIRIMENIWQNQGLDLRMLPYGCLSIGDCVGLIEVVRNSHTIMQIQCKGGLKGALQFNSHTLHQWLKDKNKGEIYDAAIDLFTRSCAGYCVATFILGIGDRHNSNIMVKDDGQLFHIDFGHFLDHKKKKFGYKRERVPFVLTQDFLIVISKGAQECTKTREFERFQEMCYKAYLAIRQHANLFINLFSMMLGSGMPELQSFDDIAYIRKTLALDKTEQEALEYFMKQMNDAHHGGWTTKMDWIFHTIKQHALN

[6] = molecular target: kinases (KINOMEscan panel) (Homo sapiens, UniProt Q99558); conditions: kinase MAP3K14; NEW KINOMEscan
kinases (KINOMEscan panel) (Homo sapiens, UniProt Q99558), sequence (Q99558 whole entry): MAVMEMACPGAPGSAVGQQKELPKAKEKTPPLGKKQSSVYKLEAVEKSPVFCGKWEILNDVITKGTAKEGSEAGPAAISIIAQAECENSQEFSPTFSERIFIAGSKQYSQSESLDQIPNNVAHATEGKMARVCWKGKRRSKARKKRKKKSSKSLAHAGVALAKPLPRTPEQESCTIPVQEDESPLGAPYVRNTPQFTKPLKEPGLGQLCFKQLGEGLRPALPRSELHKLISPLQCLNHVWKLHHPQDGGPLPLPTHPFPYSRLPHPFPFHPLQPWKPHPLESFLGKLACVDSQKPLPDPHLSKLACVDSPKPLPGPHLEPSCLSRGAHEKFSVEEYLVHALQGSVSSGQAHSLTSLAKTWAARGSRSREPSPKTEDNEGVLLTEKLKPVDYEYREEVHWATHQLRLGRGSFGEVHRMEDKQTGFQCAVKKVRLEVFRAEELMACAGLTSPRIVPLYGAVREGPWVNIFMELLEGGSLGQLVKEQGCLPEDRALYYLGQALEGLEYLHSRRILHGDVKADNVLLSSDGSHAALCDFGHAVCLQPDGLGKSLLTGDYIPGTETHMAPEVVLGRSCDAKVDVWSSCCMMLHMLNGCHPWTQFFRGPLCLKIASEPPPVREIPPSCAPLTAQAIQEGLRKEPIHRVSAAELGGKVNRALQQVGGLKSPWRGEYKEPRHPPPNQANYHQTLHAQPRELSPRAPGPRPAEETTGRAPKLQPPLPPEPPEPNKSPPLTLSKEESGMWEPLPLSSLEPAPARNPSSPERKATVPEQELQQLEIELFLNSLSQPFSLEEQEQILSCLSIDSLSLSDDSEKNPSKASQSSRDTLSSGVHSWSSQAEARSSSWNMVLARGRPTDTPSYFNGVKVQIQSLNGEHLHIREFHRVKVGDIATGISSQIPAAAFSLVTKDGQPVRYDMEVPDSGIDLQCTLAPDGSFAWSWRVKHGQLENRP

[7] = molecular target: T2, kinases (KINOMEscan panel) (Homo sapiens, UniProt Q86YV6); conditions: kinase MYLK4; NEW KINOMEscan
T2 sequence (Q86YV6 1-388): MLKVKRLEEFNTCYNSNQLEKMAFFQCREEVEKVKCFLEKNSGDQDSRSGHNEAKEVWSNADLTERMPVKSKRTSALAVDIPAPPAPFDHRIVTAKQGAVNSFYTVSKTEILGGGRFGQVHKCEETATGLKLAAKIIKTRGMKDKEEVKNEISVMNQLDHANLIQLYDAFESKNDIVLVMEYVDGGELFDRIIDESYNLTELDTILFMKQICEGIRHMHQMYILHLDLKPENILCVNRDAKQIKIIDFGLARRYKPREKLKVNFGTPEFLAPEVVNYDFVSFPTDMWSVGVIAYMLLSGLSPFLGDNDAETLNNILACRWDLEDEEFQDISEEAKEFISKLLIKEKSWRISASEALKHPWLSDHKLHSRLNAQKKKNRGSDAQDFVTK

[8] = molecular target: kinases (KINOMEscan panel) (Homo sapiens, UniProt P04626); conditions: kinase ERBB2; NEW KINOMEscan
kinases (KINOMEscan panel) (Homo sapiens, UniProt P04626), sequence (P04626 23-1255): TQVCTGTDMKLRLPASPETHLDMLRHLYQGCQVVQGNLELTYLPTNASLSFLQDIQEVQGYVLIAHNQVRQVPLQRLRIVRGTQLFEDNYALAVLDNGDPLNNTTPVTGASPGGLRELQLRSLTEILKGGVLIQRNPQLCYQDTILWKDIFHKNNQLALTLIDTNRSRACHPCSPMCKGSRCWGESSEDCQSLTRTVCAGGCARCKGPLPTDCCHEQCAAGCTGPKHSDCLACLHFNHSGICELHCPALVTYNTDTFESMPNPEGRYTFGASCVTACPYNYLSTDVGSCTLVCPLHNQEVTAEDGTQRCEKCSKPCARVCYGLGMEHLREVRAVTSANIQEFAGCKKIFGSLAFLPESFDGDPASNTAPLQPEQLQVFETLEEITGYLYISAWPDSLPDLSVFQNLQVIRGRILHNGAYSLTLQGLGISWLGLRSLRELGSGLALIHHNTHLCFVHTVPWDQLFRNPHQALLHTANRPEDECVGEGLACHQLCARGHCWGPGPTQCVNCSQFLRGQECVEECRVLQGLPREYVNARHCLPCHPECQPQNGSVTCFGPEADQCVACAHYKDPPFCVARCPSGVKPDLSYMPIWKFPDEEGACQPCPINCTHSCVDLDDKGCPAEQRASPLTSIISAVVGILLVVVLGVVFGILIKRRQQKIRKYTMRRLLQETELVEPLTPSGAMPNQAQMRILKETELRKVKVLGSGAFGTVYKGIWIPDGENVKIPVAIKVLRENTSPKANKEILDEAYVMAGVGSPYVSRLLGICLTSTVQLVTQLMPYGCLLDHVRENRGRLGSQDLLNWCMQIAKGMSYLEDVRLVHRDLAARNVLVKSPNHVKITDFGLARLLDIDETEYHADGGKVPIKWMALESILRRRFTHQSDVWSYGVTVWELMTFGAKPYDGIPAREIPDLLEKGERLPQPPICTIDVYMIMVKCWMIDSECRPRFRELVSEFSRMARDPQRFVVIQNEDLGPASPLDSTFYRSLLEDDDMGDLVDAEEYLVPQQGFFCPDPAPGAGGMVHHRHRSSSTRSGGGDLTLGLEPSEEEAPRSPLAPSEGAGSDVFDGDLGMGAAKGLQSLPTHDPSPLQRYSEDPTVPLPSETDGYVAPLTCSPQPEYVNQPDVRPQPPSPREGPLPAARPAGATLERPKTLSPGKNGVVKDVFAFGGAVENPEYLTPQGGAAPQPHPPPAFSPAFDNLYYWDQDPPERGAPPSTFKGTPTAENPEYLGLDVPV

[9] = molecular target: T3, kinases (KINOMEscan panel) (Homo sapiens, UniProt O95835); conditions: LATS1; NEW KINOMEscan
T3 sequence (O95835 1-1130): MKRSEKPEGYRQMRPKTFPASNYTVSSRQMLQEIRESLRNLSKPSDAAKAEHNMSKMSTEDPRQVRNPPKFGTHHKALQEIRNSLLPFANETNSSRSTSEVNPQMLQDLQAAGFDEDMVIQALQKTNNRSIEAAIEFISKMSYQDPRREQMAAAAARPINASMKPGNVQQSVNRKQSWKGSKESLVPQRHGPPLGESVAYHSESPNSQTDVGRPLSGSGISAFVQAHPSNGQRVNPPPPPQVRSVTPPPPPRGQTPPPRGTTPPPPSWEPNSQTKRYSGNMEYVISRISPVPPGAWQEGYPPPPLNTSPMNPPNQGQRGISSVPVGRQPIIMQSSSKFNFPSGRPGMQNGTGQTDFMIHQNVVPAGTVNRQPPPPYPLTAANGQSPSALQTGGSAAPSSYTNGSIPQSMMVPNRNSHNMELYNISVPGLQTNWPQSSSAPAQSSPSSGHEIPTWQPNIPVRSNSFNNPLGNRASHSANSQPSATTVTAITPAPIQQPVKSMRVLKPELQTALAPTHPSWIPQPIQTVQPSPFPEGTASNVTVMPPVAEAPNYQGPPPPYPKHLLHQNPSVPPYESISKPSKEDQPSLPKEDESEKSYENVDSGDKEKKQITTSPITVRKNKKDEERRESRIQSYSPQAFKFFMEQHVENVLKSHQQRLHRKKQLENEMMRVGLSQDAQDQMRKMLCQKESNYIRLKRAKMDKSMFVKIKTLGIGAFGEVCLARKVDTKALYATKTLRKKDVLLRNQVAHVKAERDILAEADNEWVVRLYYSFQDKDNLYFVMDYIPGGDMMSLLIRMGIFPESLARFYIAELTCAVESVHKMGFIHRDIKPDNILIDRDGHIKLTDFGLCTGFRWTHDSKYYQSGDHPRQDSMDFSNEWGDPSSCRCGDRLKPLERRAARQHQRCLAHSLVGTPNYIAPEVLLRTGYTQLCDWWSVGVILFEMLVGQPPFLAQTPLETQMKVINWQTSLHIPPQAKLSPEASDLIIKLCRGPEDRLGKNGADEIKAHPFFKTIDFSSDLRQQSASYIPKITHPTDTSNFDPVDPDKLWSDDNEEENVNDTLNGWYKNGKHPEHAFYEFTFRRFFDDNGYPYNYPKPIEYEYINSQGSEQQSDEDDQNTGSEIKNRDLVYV

SMILES	KINOMEscan ZAP70 [1]	KINOMEscan WNK1 [2]	KINOMEscan PIM1 [3]	KINOMEscan ACVR2A [4]	KINOMEscan PIK3CA [5]	KINOMEscan MAP3K14 [6]	KINOMEscan MYLK4 [7]	KINOMEscan ERBB2 [8]	KINOMEscan LATS1 [9]
Cc1cccc(-c2nc(Nc3ccc4nn(C)cc4c3)c3ccccc3n2)n1 [NK167]	14	0	2	0	0	0	0	0	0
Cc1cccc(-c2nc(N(C)c3ccc4ncsc4c3)c3ccccc3n2)n1 [NK-161]	20	9	29	0	0	2	0	0	5
